experiment: Thermo Scientific Acclaim RSLC 120 C18, 100 × 2.1 mm, 2.2 µm, 30 °C; A: 90% water + 10% methanol + 0.01% formic acid + 5 mM ammonium formate; B: methanol + 0.01% formic acid + 5 mM ammonium formate; gradient (min/%B) 0.1/1 3/39 14/99.9 16/99.9; settings: stereoisomer not certain

SMILES | LC retention time [min]
COc1cc(C(=O)NCc2ccc(OCCN(C)C)cc2)cc(OC)c1OC | 4.86
C(=Cc1ccccc1)CN1CCN(C(c2ccccc2)c2ccccc2)CC1 | 9.86
CC(CN(C)C)CN1c2ccccc2CCc2ccccc21 (stereo not drawn) | 8.31
CCCCOc1ccc(CC(=O)NO)cc1 | 7.83
CCCCc1c(C)nc(N(C)C)[nH]c1=O | 7.7
CCCCCn1cc(C(=O)NCc2ccccc2)c2ccccc21 | 11.2
COc1ccc2c3c1OC1C(O)CCC4C(C2)N(C)CCC341 (stereo not drawn) | 3.36
CCN(CC)CCNC(=O)COc1ccc(OC)cc1 | 4.31
CC1(C)C(C(=O)c2cn(CCN3CCOCC3)c3ccccc23)C1(C)C | 10.7
CC12CCC3C4CCC(=O)C=C4CCC3C1CCC2O (stereo not drawn) | 9.37
c1ccc(CN(CCN2CCCC2)c2ccccc2)cc1 | 7.19
COc1ccc2c3c([nH]c2c1)C(C)=NCC3 | 5.06
COC=C(C(=O)OC)c1ccccc1Oc1cc(Oc2ccccc2C#N)ncn1 | 9.02
CCN(CC)C(=O)C(C#N)=Cc1cc(O)c(O)c([N+](=O)[O-])c1 | 6.89
NC(=O)C1CCNCC1 | 1.26
CC(C)NCC(O)COc1ccc(CC(=O)O)cc1 (stereo not drawn) | 3.93
COc1ccc(CC(C)N)c(OC)c1OC (stereo not drawn) | 4.16
COc1cc2c(c(OC)c1OC)-c1ccc(OC)c(=O)cc1C(NC(C)=O)CC2 (stereo not drawn) | 6.43
CC(=O)OCC(=O)C1(O)CCC2C3CCC4=CC(=O)CCC4(C)C3C(O)CC21C (stereo not drawn) | 8.8
Nc1ccc(S(=O)(=O)NC(=O)c2ccccc2)cc1 | 4.72
CCC(=O)OC(Cc1ccccc1)(c1ccccc1)C(C)CN(C)C (stereo not drawn) | 7.73
CN(C)CCN(Cc1cccs1)c1ccccc1 | 6.32
CCOP(=S)(NC(C)CC)Oc1cc(C)ccc1[N+](=O)[O-] (stereo not drawn) | 11.2

SMILES | LC retention time [min]
CCCc1nn(C)c2c(=O)[nH]c(-c3cc(S(=O)(=O)N4CCCCC4)ccc3OCC)nc12 | 10.9
CN(C)CCc1c[nH]c2ccc(CC3COC(=O)N3)cc12 (stereo not drawn) | 3.61
CCC1(C2OC(C3OC(O)(CO)C(C)CC3C)CC2C)CCC(C2(C)CCC3(CC(O)C(C)C(C(C)C(OC)C(C)C(=O)O)O3)O2)O1 (stereo not drawn) | 13.8
O=C(O)CCCn1cc(C(=O)c2cccc3ccccc23)c2ccccc21 | 9.33
CN1Cc2c(N)cccc2C(c2ccccc2)C1 (stereo not drawn) | 5.42
Nc1ccc2c(c1)C(c1ccccc1)=NCC(=O)N2 | 4.78
CC1(C)OCC2OC3(C(=O)O)OC(C)(C)OC3C2O1 (stereo not drawn) | 4.76
CN1CSC(=S)N(C)C1 | 3.97
CC(O)CCCn1cc(C(=O)c2cccc3ccccc23)c2ccccc21 (stereo not drawn) | 10.1
COc1nc(C)nc(N)n1 | 3.71
Nc1nc2c(ncn2COCCO)c(=O)[nH]1 | 2.34
NC(=O)N1c2ccccc2C2OC2c2ccccc21 (stereo not drawn) | 6.04
CCCCCC(=O)c1ccc(O)cc1O | 10.4
C=CCC(C(=O)NC(N)=O)C(C)C (stereo not drawn) | 6.94
CCCCCn1c2ccccc2c2cc(C(=O)c3cccc4ccccc34)ccc21 | 14.2
CCc1cccc(C)c1N(C(=O)CS(=O)(=O)O)C(C)COC (stereo not drawn) | 7.34
O=C1CC2(CCCC2)CC(=O)N1CCCCN1CCN(c2ncccn2)CC1 | 5.78
NCCc1ccccc1 | 3.57
CCOC(=O)c1ccccc1C(=O)OCC | 8.5
c1ccc(C2(N3CCCCC3)CCCCC2)cc1 | 5.74
CCCCCc1cc(O)c2c(c1)OC(C)(C)C1CCC(C)=CC21 (stereo not drawn) | 14
Cc1ccc(C(=CCN2CCCC2)c2cccc(C=CC(=O)O)n2)cc1 | 6.66
Nc1nc2ccccc2[nH]1 | 3.74

SMILES | LC retention time [min]
CC(O)(C(N)=O)c1ccccc1 (stereo not drawn) | 12.9
CC(C)=CCN1CCC2(C)c3cc(O)ccc3CC1C2C (stereo not drawn) | 5.46
COc1ccc(C(C[N+](C)(C)[O-])C2(O)CCCCC2)cc1 (stereo not drawn) | 6.94
COc1cc(CCN)c(OC)cc1C | 5.34
CCNc1nc(NC(C)C)nc(OC)n1 | 7.81
COc1cccc(C2(O)CCCCC2CN(C)C)c1 (stereo not drawn) | 4.88
Cc1cc(C)n(-c2nc3ccccc3[nH]2)n1 | 8.27
Cc1noc(NS(=O)(=O)c2ccc(N)cc2)c1C | 4.71
Cc1cccc(OCC(O)CNC(C)C)c1 (stereo not drawn) | 5.29
CCCOP(=S)(OCCC)OP(=S)(OCCC)OCCC | 12.9
CCC(C)(C)c1ccc(CC(C)CN2CC(C)OC(C)C2)cc1 (stereo not drawn) | 12.9
COc1cc(CCN)cc(OC)c1OC | 3.88
CCN1CCCC1CNC(=O)c1cc(S(N)(=O)=O)ccc1OC (stereo not drawn) | 2.94
COc1cc2nc(N3CCN(C(=O)C4CCCO4)CC3)nc(N)c2cc1OC (stereo not drawn) | 4.92
C=CC=CCC1=C(C)C(OC(=O)C2C(C=C(C)C(=O)OC)C2(C)C)CC1=O (stereo not drawn) | 11.7
NC(=O)c1cc[n+](CC2=C(C(=O)[O-])N3C(=O)C(NC(=O)Cc4cccs4)C3SC2)cc1 (stereo not drawn) | 4.03
CC(C)N(CCC(C(N)=O)(c1ccccc1)c1ccccn1)C(C)C (stereo not drawn) | 4.74
CN1CCCC1Cc1c[nH]c2ccc(CCS(=O)(=O)c3ccccc3)cc12 (stereo not drawn) | 5.51
CCCCc1c(C)nc(NCC)[nH]c1=O | 8
Cc1ccc(NC=O)c(C)c1 | 6.67
CC12CCC(=O)C=C1CCC1C2CCC2(C)C1CCC2(C)O (stereo not drawn) | 10.4
CCCC(Cc1ccccc1)N1CCCC1 (stereo not drawn) | 5.56
Cc1cc(C)nc(Nc2ccccc2)n1 | 9.44

SMILES | LC retention time [min]
CCNC(=O)c1ccc(OC)cc1 | 5.59
COC(=O)C1C(O)CCC2CN3CCc4c([nH]c5ccccc45)C3CC21 (stereo not drawn) | 5.08
CCCC1CC(C(=O)NC(C(C)O)C2OC(SC)C(O)C(O)C2O)N(C)C1 (stereo not drawn) | 4.08
CC(C)(C)NCC(O)COc1cccc2c1CCC(=O)N2 (stereo not drawn) | 3.91
CC(C)(C)c1ccc(C(=O)CCCN2CCC(OC(c3ccccc3)c3ccccc3)CC2)cc1 | 10.9
Cc1ccccc1CC(C)N (stereo not drawn) | 5.17
CC(=O)c1ccc(S(=O)(=O)NC(=O)NC2CCCCC2)cc1 | 7.72
COc1ccc(Cc2nccc3cc(OC)c(OC)cc23)cc1OC | 6.27
CCN(C(C)=O)c1cccc(-c2ccnc3c(C#N)cnn23)c1 | 6.61
CC(=O)OC1CCC2C3CCC4CC(=O)C=C(C)C4(C)C3CCC12C (stereo not drawn) | 12.5
CNCCC=C1c2ccccc2CCc2ccccc21 | 8.51
CCCN(CCC)C(=O)SCc1ccccc1 | 11.9
CN(C)CCC=C1c2ccccc2CSc2ccccc21 | 7.61
CCOC(=O)NC(=S)Nc1ccccc1NC(=S)NC(=O)OCC | 8.61
OC(c1ccccc1)(c1ccccc1)C1CCNCC1 | 6.19
CCCc1nc(C)c2c(=O)[nH]c(-c3cc(S(=O)(=O)N4CCCCC4)ccc3OCC)nn12 | 10.6
COc1ccccc1OCC(O)CO (stereo not drawn) | 5.11
CC(=O)Oc1cccc2[nH]cc(CCN(C(C)C)C(C)C)c12 | 4.88
Cc1occc1C(=O)Nc1ccccc1 | 7.59
CC(C)CC(CN)CC(=O)O (stereo not drawn) | 3.88
CN1CCC23c4c5ccc(O)c4OC2C(=O)CCC3C1C5 (stereo not drawn) | 2.91
CC12CC3CC(C)(C1)CC(N)(C3)C2 | 6.91
Cc1cc2c(s1)Nc1ccccc1N=C2N1CCN(C)CC1 | 4.99

SMILES | LC retention time [min]
CCN(CC)CC#CCOC(=O)C(O)(c1ccccc1)C1CCCCC1 (stereo not drawn) | 8.92
CCCCCn1cc(C(=O)c2cccc3ccccc23)c2cccc(O)c21 | 11.8
Cn1c(=O)c2c(ncn2CCCNCC(O)c2cc(O)cc(O)c2)n(C)c1=O (stereo not drawn) | 3.56
O=c1ccc2cc(OC3OC(CO)C(O)C(O)C3O)c(O)cc2o1 (stereo not drawn) | 3.69
Nc1ccc([N+](=O)[O-])cc1C(=O)c1ccccc1 | 8.99
CN(C)CCC=C1c2ccccc2C=Cc2ccccc21 | 7.95
CCN1CC(CCN2CCOCC2)C(c2ccccc2)(c2ccccc2)C1=O (stereo not drawn) | 6.23
COc1ccc(CCN(C)CCCC(C#N)(c2cc(OC)c(OC)c(OC)c2)C(C)C)cc1OC (stereo not drawn) | 7.19
CCCc1nn(C)c2c(=O)[nH]c(-c3cc(S(=O)(=O)N4CCN(CCO)CC4)ccc3OCC)nc12 | 7.83
Cc1ccccc1C(=O)Nc1cccc(OC(C)C)c1 | 9.62
CC(C(=O)O)c1ccc(CC(C)(C)O)cc1 (stereo not drawn) | 7.08
CCCc1nn(C)c2c(=O)[nH]c(-c3cc(C(=O)N4CCN(CC)CC4)ccc3OCC)nc12 | 6.78
CC1=C(C(=O)O)N2C(=O)C(NC(=O)C(N)c3ccc(O)cc3)C2SC1 (stereo not drawn) | 2.84
COC1(C)CC(c2ccccc2)c2c(c3ccccc3oc2=O)O1 (stereo not drawn) | 11.1
COC(=O)C1=CCCN(C)C1 | 1.74
CNC(=O)Oc1cccc2c1OC(C)(C)C2 | 7.01
CN(C)CCOC(c1ccccc1)c1ccccc1 | 6.63
CC(CN(C)C)CN1c2ccccc2Sc2ccccc21 (stereo not drawn) | 8.1
c1ccc(Nc2ccccc2)cc1 | 10.1
O=C(c1cccc2ccccc12)c1cn(CC2CCCCC2)c2ccccc12 | 13
CC(=O)Oc1ccc2c3c1OC1C(OC(C)=O)C=CC4C(C2)N(C)CCC341 (stereo not drawn) | 4.63

— the RepoRT retention time repository (doi:10.1016/j.jhazmat.2019.121712)
